Data taken from patent US6177474A, “Polyhydroxyphenol derivatives and preventive and therapeutic agents for bone and cartilage diseases containing the same” (Hoechst Marion Roussel, priority 1996, dated 2001).

Test system: bone cells containing osteoclast cells
Test: Pit formation assay: inhibition of osteolysis (absorption pits on ivory slices)
Type: cell-based, ICR mice
Settings: 72 h; for No. of absorption pits (Mean ± SD): 10 µM; for inhibition at 10 µM: Mus musculus, Osteoclast, compound 10^-5 M, 0% = pits with rPTH (1×10^-8 M) without medicine, 100% = no absorption pit, read-out: Ratio of inhibition (%)
Procedure: ICR mice 11-12 days old (purchased from Charles River Japan) were euthanized by anesthesia with ether and immediately immersed in 70% ethanol for disinfection. By the use of ophthalmologist scissors and pincers sterilized in advance with ethanol, femur and tibia were excised from the sacrificed mice and chopped into small pieces in an α-MEM culture medium (purchased from Flow Laboratories Corp.). containing 5% FBS (purchased from Irvine Scientific Corp.), 100 U/ml penicillin and 100 μg/ml streptomycin. The supernatant formed consequently was recovered by pipeting, cleaned with the culture broth, and suspended in a 5% FBS α-MEM culture broth to obtain bone cells containing osteoclast cells. The supernatant of a bone cell-floating liquid formed after 3 minutes' standing of the bone cells at rest was recovered and passed through a mesh (cell strainer, 70 μm, purchased from Falcon Corp.). The filtrate was adjusted to a cell concentration of 1×10^7 /ml and used for the pit formation assay.
An ivory piece was cut into slices, 150 μm in thickness, by the use of a precision low-speed cutting machine (purchased from Buehler Corp.). Cylindrical holes, 6 mm in diameter, were perforated in the slices by the use of a one-hole punch. The ivory slices were immersed in 70% ethanol and subjected therein to an ultrasonic cleaning treatment twice each for five minutes and washed three times with a sterilized PBS and twice with the culture medium. The ivory slices were set in place on a 96-hole culture plate (purchased from Falcon Corp.). The perforated ivory slices on the culture plate, with a culture broth containing a given compound of the present invention prepared in a concentration of 2×10^-5 M added in a fixed volume of 100 μl (final medicine concentration 1×10^-5 M) to each of the holes and a culture broth containing prepared bone cells in a concentration of 1×10^7 /ml placed in each of the holes, were cultured for three days in a 10% CO2 incubator at 37° C. After the culture, the ivory slices were placed in an aqueous 2 N sodium hydroxide and the cells on the slices were removed by the use of a rubber spatula. The ivory slices were washed with water and methanol. The absorption pits formed in the ivory slices were dyed with Coomassie Brilliant Blue and were counted under a microscope. Though the numbers of absorption pits were naturally found to disperse among test lots, depending on the ratios of varying specie s of cells in the bone cell suspensions and the lots of animals used, satisfactorily uniform test results were found in one and the same test lot. The ratio of inhibition of osteolysis was calculated on the 100% scale, in which 0% stands for the number of absorption pits found in the culture broth in the presence of rPTH (1×10^-8 M) and in the absence of a medicine and 100% for total absence of absorption pit.
The test described above was performed in a total of ten runs, Tests 1-10.
In the columns titled "Added medicine No." found in Table 2 and Table 3, the symbol (-) denotes a control involving no addition of medicine and the numerical No. denotes the No. of the compound mentioned above.

| SMILES | No. of absorption pits (Mean ± SD) | inhibition at 10 µM |
| --- | --- | --- |
| CC(C)=CCCC(C)=CCC1=C(O)C(CC=C(C)CCC=C(C)C)(CC=C(C)CCC=C(C)C)C(=O)C(C(=O)CC(C)C)=C1O (centres unmarked) [Compound 20, 3,5-dihydroxy-6-(3-methyl-1-oxobutyl)-2,2,4-tris(3,7-dimethyl-2,6-octadienyl)cyclohexa-3,5-dienone] | 3.0 ± 1.3 | 98.4% |
| CC(C)=CCc1c(O)cc(C)c(C(=O)CC(C)C)c1O [Compound 49, {2,4-dihydroxy-6-methyl-3-(3-methyl-2-butenyl)phenyl} (2-methylpropyl) ketone] | 44.3 ± 5.4 | 78% |
| CC(C)=CCC1(CC=C(C)C)C(=O)C(C(=O)CC(C)CCCC(C)C)=C(O)C=C1O (centres unmarked) [Compound 24, 2,2-bis(3-methyl-2-butenyl)-3,5-dihydroxy-6-(3,7-dimethyl-1-oxooctyl)cyclohexa-3,5-dienone] | 39.3 ± 13.9 | 75.8% |
| CC(C)=CCOc1cc(C)c(C(=O)CC(C)C)c(O)c1 [Compound 48, {2-hydroxy-6-methyl-4-(3-methyl-2-butenyloxy)phenyl} (2-methylpropyl) ketone] | 85.2 ± 7.5 | 57.8% |
| CC(C)=CCC1=C(O)C(CC=C(C)C)(CC=C(C)C)C(=O)C(C(=O)Cc2ccccc2)=C1O [Compound 40, 3,5-dihydroxy-6-(phenylacetyl)-2,2,4-tris(3-methyl-2-butenyl)-cyclohexa-3,5-dienone] | 4.9 ± 3.8 | 96.1% |
| CC(C)=CCc1c(O)cc(O)c(C(=O)CC(C)C)c1C [Compound 50, {4,6-dihydroxy-2-methyl-3-(3-methyl-2-butenyl)phenyl} (3-methylpropyl) ketone] | 40.1 ± 7.0 | 80.1% |
| CC(C)=CCc1c(O)ccc(C(=O)CC(C)C)c1O [Compound 54, (2,4-dihydroxy-3-(3-methyl-2-butenyl)phenyl) (2-methylpropyl) ketone] | 66.5 ± 9.7 | 61.2% |
| CC(C)CC(=O)C1=C(O)C(Cc2ccccc2)=C(O)C(O)(Cc2ccccc2)C1=O (centres unmarked) [Compound 33, 2,4-bisbenzyl-6-(3-methyl-1-oxobutyl)-2,3,5-trihydroxycyclohexa-3,5-dienone] | 9.8 ± 1.8 | 95.1% |
| CC(C)=CCCC(C)=CCC1(CC=C(C)CCC=C(C)C)C(=O)C(C(=O)Cc2ccccc2)=C(O)C=C1O (centres unmarked) [Compound 45, 3,5-dihydroxy-6-(phenylacetyl)-2,2-bis(3,7-dimethyl-2,6-octadienyl)cyclohexa-3,5-dienone] | 8.2 ± 1.8 | 96.4% |
| CC(C)=CCCC(C)=CCc1c(O)c(CC=C(C)CCC=C(C)C)c(O)c(C(=O)Cc2ccccc2)c1O [Compound 43, {3,5-bis(3,7-dimethyl-2,6-octadienyl)-2,4,6-trihydroxyphenyl} (phenylmethyl) ketone] | 11.3 ± 2.5 | 95% |
